The source of these data is patent US20240226098A1, “COMPOUNDS AND METHODS FOR MODULATING SPLICING” (REMIX THERAPEUTICS INC., priority 2020, published 2024).

Holding throughout (type): cell-based
Test [1] deals with HTT mRNA, alternative junction (AJ). Kind of test: Splicing assay (RT-qPCR): increase in HTT alternative junction (AJ) mRNA. As to conditions: A673 or K562 cell line, 24 hours treatment, top dose 10 uM; concentration having 50% response in AJ increase. As to the method: (§1) Compounds described herein were used to modulate RNA transcript abundance in cells. The expression of a target mRNA was measured by detecting the formation of an exon-exon junction in the canonical transcript (CJ). A compound mediated exon-inclusion event was detected by observing an increase in formation of a new junction with an alternative exon (AJ). Real-time qPCR assays were used to detect these splicing switches and interrogate the potency of various compounds towards different target genes. A high-throughput real time quantitative PCR (RT-qPCR) assay was developed to measure these two isoforms of the mRNA (CJ and AJ) for an exemplary gene, HTT, together with a control housekeeping gene, GAPDH or GUSB or PPIA, used for normalization. Briefly, the A673 or K562 cell line was treated with various compounds described herein (e.g., compounds of Formula (I)). After treatment, the levels of the HTT mRNA targets were determined from each sample of cell lysate by cDNA synthesis followed by qPCR.
(§2) • Cells-to-CT 1-step kit: ThermoFisher A25602, Cells-to-CT lysis reagent: ThermoFisher 4391851C, TaqMan™ Fast Virus 1-Step Master Mix: ThermoFisher 4444436 • GAPDH: VIC-PL, ThermoFisher 4326317E (Assay: Hs99999905_ml)—used for K562/suspension cell lines • GUSB: VIC-PL, ThermoFisher 4326320E (Assay: Hs99999908_ml)—used for K562/suspension cell lines • PPIA: VIC-PL, ThermoFisher 4326316E (Assay: Hs99999904_ml)—used for A673/adherent cell lines
(§3) The A673 cell line was cultured in DMEM with 10% FBS. Cells were diluted with full growth media and plated in a 96-well plate (15,000 cells in 100 ul media per well). The plate was incubated at 37° C. with 5% CO2 for 24 hours to allow cells to adhere. An 11-point 3-fold serial dilution of the compounds was made in DMSO then diluted in media in an intermediate plate. Compounds were transferred from the intermediate plate to the cell plate with the top dose at a final concentration of 10 uM in the well. Final DMSO concentration was kept at or below 0.25%. The cell plate was returned to the incubator at 37° C. with 5% CO2 for an additional 24 hours.
(§4) The K562 cell line was cultured in IMDM with 10% FBS. For K562, cells were diluted with full growth media and plated in either a 96-well plate (50,000 cells in 50 uL media per well) or a 384-well plate (8,000-40,000 cells in 45 uL media per well). An 11-point 3-fold serial dilution of the compounds were made in DMSO then diluted in media in an intermediate plate. Compound was transferred from the intermediate plate to the cell plate with the top dose at a final concentration of 10 uM in the well. Final DMSO concentration was kept at or below 0.25%. Final volume was 100 uL for 96-well plate and 50 uL for 384-well plate. The cell plate was then placed in an incubator at 37° C. with 5% CO2 for 24 hours.
(§5) The cells were then gently washed with 50 uL-100 uL cold PBS before proceeding to addition of lysis buffer. 30 uL-50 uL of room temperature lysis buffer with DNAse I (and optionally RNAsin) was added to each well. Cells were shaken/mixed thoroughly at room temperature for 5-10 minutes for lysis to take place and then 3 uL-5 uL of room temperature stop solution was added and wells were shaken/mixed again. After 2-5 minutes, the cell lysate plate was transferred to ice for RT-qPCR reaction setup. The lysates could also be frozen at −80° C. for later use.
(§6) In some cases, a direct lysis buffer was used. An appropriate volume of 3× lysis buffer (10 mM Tris, 150 mM NaCl, 1.5%-2.5% Igepal and 0.1-1 U/uL RNAsin, pH 7.4) was directly added to either K562 or A673 cells in media and mixed by pipetting 3 times. The plates were then incubated at room temperature with shaking/rocking for 20-50 minutes to allow for lysis to take place. After this time, the cell lysate plate was transferred to ice to set up for the RT-qPCR reactions. The lysates could also be frozen at −80° C. for later use. […]
In general terms: Quantitative PCR measures a nucleic acid by following its amplification.

For test [2], the system named is HTT mRNA, canonical junction (CJ). Kind of test: Splicing assay (RT-qPCR): decrease in HTT canonical junction (CJ) mRNA. Conditions: A673 or K562 cell line, 24 hours treatment, top dose 10 uM; concentration having 50% response in CJ decrease. As to the method: as §1, §2, §3, §4, §5, §6
A further test has as its system HTT CJ mRNA. In words: Gene panel canonical junction qPCR assay: decrease in HTT CJ mRNA. Conditions: protocol as for Table 2, read-out: HTT (IC50, decrease in CJ mRNA levels). The protocol:
as §1, §3, §4, §5
(§7) In some cases, a direct lysis buffer was used. An appropriate volume of 3× lysis buffer (10 mM Tris, 150 mM NaCl, 1.5%-2.5% Igepal and 0.1-1 U/uL RNAsin, pH 7.4) was directly added to either K562 or A673 cells in media and mixed by pipetting 3 times. The plates were then incubated at room temperature with shaking/rocking for 20-50 minutes to allow for lysis to take place. After this time, the cell lysate plate was transferred to ice to set up for the RT-qPCR reactions. The lysates could also be frozen at −80° C. for later use.
(§8) To set up 10 uL RT-qPCR reactions, cell lysates were transferred to 384-well qPCR plates containing the master mix according to the table below. The plates were sealed, gently vortexed, and spun down before the run. The volumes were adjusted accordingly in some instances where the reaction was carried in 20 uL. The table below summarizes the components of the RT-qPCR reactions:
(§9) The RT-qPCR reaction was performed using a QuantStudio (ThermoFisher) under the following fast cycling conditions. […]

The subject of another test is SMN2 CJ mRNA. Kind of test: Gene panel canonical junction qPCR assay: decrease in SMN2 CJ mRNA. Conditions: protocol as for Table 2, read-out: SMN2 (IC50, decrease in CJ mRNA levels). As to the method:
as §1, §3, §4, §5, §7, §8, §9

Another test relates to Target C CJ mRNA. Kind of test: Gene panel canonical junction qPCR assay: decrease in Target C CJ mRNA. As to conditions: protocol as for Table 2, read-out: Target C (IC50, decrease in CJ mRNA levels). As to the method:
as §1, §3, §4, §5, §7, §8, §9

`Cc1cn2cc(NC(=O)c3ccc(N4CCN5CCCC5C4)c4ccnnc34)cc(F)c2n1` (stereo in doubt) [Compound 154, 5-[(8aR)-hexahydro-1H-pyrrolo[1,2-a]pyrazin-2-yl]-N-[8-fluoro-2-methylimidazo[1,2-a]pyridin-6-yl]cinnoline-8-carboxamide]: the AC50 in test [1] and in test [2] was 1000 to 10000 nM in each case. Further, the results for the IC50 with HTT CJ mRNA, in the test on SMN2 CJ mRNA and in the test with Target C CJ mRNA were 1000 to 10000 nM, < 100 nM and 100 to 1000 nM, respectively.

As for `Cc1cn2cc(NC(=O)c3ccc(N4CCC(N(C)C)CC4)c4nccnc34)cc(F)c2n1` [Compound 158, 8-[4-(dimethylamino)piperidin-1-yl]-N-[8-fluoro-2-methylimidazo[1,2-a]pyridin-6-yl] quinoxaline-5-carboxamide], the AC50 in test [1] and in test [2] was 100 to 1000 nM in each case. The IC50 (usually the midpoint of a concentration-inhibition curve) with HTT CJ mRNA was 100 to 1000 nM; in the test with SMN2 CJ mRNA, < 100 nM; in the test with Target C CJ mRNA, 1000 to 10000 nM.

As to `Cc1cn2cc(NC(=O)c3ccc(N4CCN(C)CC4)c4ccnnc34)cc(F)c2n1` [Compound 127, N-[8-fluoro-2-methylimidazo[1,2-a]pyridin-6-yl]-5-(4-methylpiperazin-1-yl) cinnoline-8-carboxamide], the AC50 in test [1] and in test [2] was 1000 to 10000 nM each time. Besides, the figures for the IC50 with HTT CJ mRNA, in the test with SMN2 CJ mRNA and with Target C CJ mRNA were 1000 to 10000 nM, < 100 nM and 1000 to 10000 nM, respectively.

On to `Cc1cn2cc(NC(=O)c3ccc(N4CCC(N5CCCC5)C4)c4ccnnc34)cc(F)c2n1` (stereo not shown) [Compound 133, 5-[[1,3-bipyrrolidin]-1-yl]-N-[8-fluoro-2-methylimidazo[1,2-a]pyridin-6-yl]cinnoline-8-carboxamide], for which the AC50 in test [1] and in test [2] was 1000 to 10000 nM throughout. The half-maximal inhibitory concentration (IC50) is 1000 to 10000 nM in the test with HTT CJ mRNA, < 100 nM in the test on SMN2 CJ mRNA and 1000 to 10000 nM in the test on Target C CJ mRNA.

For `Cc1cn2cc(NC(=O)c3ccc(N4CC5(CNC5)C4)c4ccnnc34)cc(F)c2n1` [Compound 131, 5-[2,6-diazaspiro[3.3]heptan-2-yl]-N-[8-fluoro-2-methylimidazo[1,2-a]pyridin-6-yl]cinnoline-8-carboxamide], the AC50 in test [1] and in test [2] was 1000 to 10000 nM in each case. The IC50 in the test on HTT CJ mRNA is 1000 to 10000 nM; with SMN2 CJ mRNA it was < 100 nM; in the test with Target C CJ mRNA, 100 to 1000 nM.

Regarding `CCC1CN(c2ccc(C(=O)Nc3cc(F)c4nc(C)cn4c3)c3nnccc23)CCN1` (stereo in doubt) [Compound 152, 5-[(3R)-3-ethylpiperazin-1-yl]-N-[8-fluoro-2-methylimidazo[1,2-a]pyridin-6-yl]cinnoline-8-carboxamide], the AC50 in test [1] and in test [2] was 1000 to 10000 nM throughout. Besides, the IC50 in the test with HTT CJ mRNA was 1000 to 10000 nM; in the test with SMN2 CJ mRNA, < 100 nM; with Target C CJ mRNA, > 10000 nM.

Regarding `Cc1cn2cc(NC(=O)c3ccc(N4CCNCC4)c4cncnc34)cc(F)c2n1` [Compound 112, N-[8-fluoro-2-methylimidazo[1,2-a]pyridin-6-yl]-5-(piperazin-1-yl)quinazoline-8-carboxamide], the AC50 in test [1] and in test [2] was 1000 to 10000 nM throughout. In addition, the IC50 in the test with HTT CJ mRNA is 1000 to 10000 nM; in the test with SMN2 CJ mRNA, < 100 nM; in the test with Target C CJ mRNA, 100 to 1000 nM.

Take `Cc1cn2cc(NC(=O)c3ccc(N4CCNCC4)c4ccnnc34)cc(F)c2n1` [Compound 101, N-[8-fluoro-2-methylimidazo[1,2-a]pyridin-6-yl]-5-(piperazin-1-yl) cinnoline-8-carboxamide]: the AC50 in test [1] and in test [2] was 100 to 1000 nM each time. Further, the IC50 in the test on HTT CJ mRNA was 100 to 1000 nM; in the test on SMN2 CJ mRNA, < 100 nM; in the test with Target C CJ mRNA, 1000 to 10000 nM.

As for `Cn1cc2ccc(NC(=O)c3ccc(N4CCNCC4)c4ccnnc34)cc2n1` [Compound 115, N-(2-methylindazol-6-yl)-5-(piperazin-1-yl) cinnoline-8-carboxamide], the AC50 in test [1] and in test [2] was > 10000 nM in each case. For the same compound, the IC50 in the test with HTT CJ mRNA, in the test with SMN2 CJ mRNA and in the test with Target C CJ mRNA was > 10000 nM in each case.

On to `Cc1cn2cc(NC(=O)c3ccc(C4CCN(C)CC4)c4ccnnc34)cc(F)c2n1` [Compound 140, N-[8-fluoro-2-methylimidazo[1,2-a]pyridin-6-yl]-5-(1-methylpiperidin-4-yl) cinnoline-8-carboxamide], for which the AC50 in test [1] and in test [2] was 1000 to 10000 nM in each case. Besides, the IC50 was 1000 to 10000 nM in the test on HTT CJ mRNA, < 100 nM in the test with SMN2 CJ mRNA and > 10000 nM in the test with Target C CJ mRNA.

Consider `Cc1cn2nc(NC(=O)c3ccc(C4CCNCC4)c4ccnnc34)cc(C)c2n1` [Compound 113, N-[2,8-dimethylimidazo[1,2-b]pyridazin-6-yl]-5-(piperidin-4-yl) cinnoline-8-carboxamide], for which the AC50 in test [1] and in test [2] was 1000 to 10000 nM in each case. For the same compound, the IC50 with HTT CJ mRNA was in the range of 1000 to 10000 nM; in the test on SMN2 CJ mRNA, 100 to 1000 nM; in the test with Target C CJ mRNA, 1000 to 10000 nM.

`Cc1cn2cc(NC(=O)c3ccc(N4CCNC(C)C4)c4ccnnc34)cc(F)c2n1` (stereo not shown) [Compound 128, N-[8-fluoro-2-methylimidazo[1,2-a]pyridin-6-yl]-5-(3-methylpiperazin-1-yl) cinnoline-8-carboxamide]: the AC50 in test [1] and in test [2] was 100 to 1000 nM in each case. The figures for the IC50 in the test with HTT CJ mRNA, with SMN2 CJ mRNA and in the test with Target C CJ mRNA were 100 to 1000 nM, < 100 nM and 100 to 1000 nM, respectively.

For `Cc1cn2cc(NC(=O)c3ccc(N4CC5(CN(C)C5)C4)c4ccnnc34)cc(F)c2n1` [Compound 132, N-[8-fluoro-2-methylimidazo[1,2-a]pyridin-6-yl]-5-[6-methyl-2,6-diazaspiro[3.3]heptan-2-yl]cinnoline-8-carboxamide], the AC50 in test [1] and in test [2] was 1000 to 10000 nM each time. In addition, the IC50 was 1000 to 10000 nM in the test with HTT CJ mRNA, < 100 nM in the test with SMN2 CJ mRNA and < 100 nM in the test with Target C CJ mRNA.

Regarding `Cc1cn2cc(NC(=O)c3ccc(N4CCNCC4)c4ccnnc34)cc(C)c2n1` [Compound 125, N-[2,8-dimethylimidazo[1,2-a]pyridin-6-yl]-5-(piperazin-1-yl)cinnoline-8-carboxamide], the AC50 in test [1] and in test [2] was 1000 to 10000 nM in each case. For the same compound, the IC50 is 1000 to 10000 nM in the test on HTT CJ mRNA, < 100 nM in the test on SMN2 CJ mRNA and 1000 to 10000 nM in the test on Target C CJ mRNA.
